{
  "source": "patent US10718778B2",
  "about": "“Compositions and methods for detecting protein sulfenylation” (THE REGENTS OF THE UNIVERSITY OF MICHIGAN, priority 2014, dated 2020)",
  "key": {"B-cell hybridomas": {"test_system": "B-cell hybridomas", "test": "ratiometric imaging of sulfenylation in live cells by TIRF microscopy", "format": "cell-based", "description": "Next, whether DiNap-1F could be used for ratiometric imaging sulfenylation in live cells by Total Internal Reflectance Fluorescence (TIRF) microscopy was tested."}, "live HEK293T cells": {"test_system": "live HEK293T cells", "test": "labeling of live HEK293T cells"}},
  "data": [
    {"smiles": "Nc1ccc2c3c(cccc13)C(=O)C(F)=C2O", "note": "[DiNap-1F]", "values": [
      {"measurement": "excitation ratio change over time", "setting": "B-cell hybridomas", "result": "clearly elicited a robust excitation ratio change over time"},
      {"measurement": "cell permeability", "setting": "live HEK293T cells; live mammalian cells", "result": "validating cell permeability"},
      {"measurement": "labeling of live mammalian cells", "setting": "live HEK293T cells; time and concentration dependence", "result": "labeled efficiently"}
    ]}
  ]
}
